The text below walks through data of patent publication US11155820B2, “Target of VGSC β3 protein for prevention, treatment and diagnostic detection of cancers” (SHENYANG PHARMACEUTICAL UNIVERSITY, priority 2014, dated 2021).

One experiment deals with VGSC β3 subunit. The experiment in a line: Western blotting of VGSC β3 subunit in HepG2 cells after AGAP. The class given is cell-based, human. The following applies: HepG2, 40 μM, 48 h incubation, control proteins. How it is done:
(§1) Analgesic antitumoral peptide (AGAP) at […] different concentrations (0, 5, 10, 15, 20, 25, 30, 35 and 40 μM) were incubated with hepatoma cell lines HepG2 (96 well plates, 10^4 cells/well, 24 h later, AGAP was administered at different concentrations as described above, at least 3 wells were repeated for each concentration) for 48 h, the amount of the VGSC β3 subunit expressed was then detected by Western blotting using the antibody in I.10. The cell proliferation level was measured using the MTT method.
(A western blot detects proteins with antibodies after separation by electrophoresis.)

In experiment [1] the test system is hepatoma cell lines HepG2. Nature of the experiment: MTT assay of HepG2 cell proliferation after AGAP. The following applies: HepG2, 40 μM, 48 h incubation, control proteins. The class given is cell-based. As to the method:
The cell proliferation was measured by MTT assay:took the cells in good growth condition and in logarithmic growth phase, digested with conventional trypsin, and pipetted into a single cell suspension, after counting the blood cell with blood counting chamber, the concentration was adjusted to 10^5 cells/ml (HepG2 cells), then were inoculated into 96-well plates at 100 μl per well, while set the blank hole (only added 100 μl of culture medium, without cells); cultured in 5% CO2 incubator at 37° C. for 24 h, each well was added 0.5 mg/ml MTT, 100 μl, then continued to culture for 4 h, the supernatant was discarded and 150 μl of DMSO was added to each well. The mixture was incubated at low speed for 10 min on a micro shaker, and the absorbance of each well was measured at 490 nm using a microplate reader after the crystals were fully dissolved.
as §1
A general note: Formazan colour is commonly taken as a measure of viable cells.

With bovine serum albumin, the “effect on the expression of the VGSC β3 subunit” value in the experiment on VGSC β3 subunit is “no effect”. Besides, in experiment [1], the “effect on cell proliferation” value is “nor did it affect cell proliferation”.
As to cytochrome C, in the experiment on VGSC β3 subunit, the “effect on the expression of the VGSC β3 subunit” value is recorded as “no effect”. In addition, the “effect on cell proliferation” value in experiment [1] is given as “nor did it affect cell proliferation”.
